What was measured:
Malat-1 [1] = assay: Malat-1 RNA by RT-qPCR in MHT cells; autophagy modulator, then oligonucleotide by free uptake; type: cell-based, mouse; settings: for effect of autophagy modulator on modified oligonucleotide activity (in words): MOE gapmer 399462, relative to DMSO; for effect of autophagy modulator on antisense activity (in words): cEt gapmer 556089, relative to DMSO
Protocol: MHT cells (a mouse hepatocellular carcinoma cell line) were plated at 20,000 cells/well and treated with DMSO (control) or an autophagy modulator for 24 hours at the concentrations indicated in Table 2 below. 3-MA, BafA1, AZD8055, and leupeptin are […]. […] Fourteen hours after the addition of autophagy modulators, 10 μM of a modified control oligonucleotide or of a modified antisense oligonucleotide was added by free uptake for ten hours. The modified oligonucleotides, shown in Table 1 below, are 3-10-3 cEt gapmers in which every internucleoside linkage is a phosphorothioate internucleoside linkage. The three 5′-terminal nucleosides and the three 3′-terminal nucleosides of each oligonucleotide each comprise a cEt modified sugar moiety. The remaining ten nucleosides of each oligonucleotide each comprise an unmodified, 2′-deoxy sugar moiety.
Using the primer probe sets described in Table 3 below, RT-qPCR analysis was performed to detect RNA levels of Malat-1, shown in Table 4 and markers of autophagy, (Rab7, LAMP2, Atg7, ULK1, ULK2, Atg5, Beclin, and c-Jun), shown in Table 5. Results were normalized to cyclophilin A levels. To control for global effects of autophagy modulators on gene expression, Malat-1 RNA levels after treatment with an antisense oligonucleotide and an autophagy modulator were normalized to Malat-1 RNA levels in cells treated with control Compound No. 549148 and the same autophagy modulator.
MHT cells were plated at 20,000 cells/well and treated with DMSO (control) or an autophagy modulator for 24 hours, at the concentrations indicated Table 7 below. Fourteen hours after the addition of autophagy modulator, control or antisense oligonucleotides (see Table 6) were added at 1 μM, 2.5 μM, 5 μM, or 10 μM by free uptake for ten hours. The modified oligonucleotides, shown in Table 6 below, are 5-10-5 MOE gapmers in which every internucleoside linkage is a phosphorothioate internucleoside linkage. The five 5′-terminal nucleosides and the five 3′-terminal nucleosides of each oligonucleotide each comprise a 2′-MOE modified sugar moiety. The remaining ten nucleosides of each oligonucleotide each comprise an unmodified, 2′-deoxy sugar moiety.
RT-qPCR analysis was performed to detect RNA levels of Malat-1 using primer probe set 15877 (described in Example 1). In order to control for global effects of autophagy modulators on gene expression, Malat-1 RNA levels after treatment with an antisense oligonucleotide and an autophagy modulator were normalized to Malat-1 RNA levels in cells treated with control Compound No. 141923 and the same autophagy modulator. Each table below represents results from an individual assay.

Malat-1 [2] = assay: Malat-1 RNA by RT-qPCR in A431 cells; type: cell-based, human; settings: MOE gapmer
Protocol: RT-qPCR analysis was performed to detect RNA levels of Malat-1 using primer probe set RTS2736. Results were normalized to cyclophilin A levels (measured using HTS3936). […] Each table below represents results from an individual assay.

[3] = test system: mTOR kinase activity (pS6/S6 levels); assay: Liver protein analysis in mice: pS6/S6; type: in vivo; settings: Table 34; mouse liver 24 h; oligonucleotide 5 mg/kg (or PBS); Treatment Rapamycin 5 mg/kg at 0, 12, 22 h
Protocol: The following experiments were performed to determine if the effects of autophagy modulators on antisense activity in vitro can be observed in vivo. […] Following administration of modified oligonucleotide, mice were administered 1% DMSO or 5 mg/kg AZD8055 in 1% DMSO at three time points over 24 hours: at the time of administration of the modified oligonucleotide, and 12 and 22 hours after administration of the modified oligonucleotide. A group of control mice was administered PBS at time 0 and 1% DMSO at 0, 12, and 22 hours. Mice were sacrificed at 24 hours after administration of the modified oligonucleotide and tissues were collected for analysis.
Protein analysis was carried out on liver tissue using standard procedures. All proteins were normalized to α-tubulin. […] The antibody against LC3B (ab48394) was purchased from Abcam. […] Antibody against P62 (GP62-C) was purchased from Progen.
A group of control mice was administered PBS at time 0 and 1% DMSO at 0, 12, and 22 hours. Mice were sacrificed at 24 hours after administration of the modified oligonucleotide and tissues were collected for analysis. […]

Atg7 = Atg7 mRNA in mouse liver by RT-qPCR; type: in vivo; settings: Table 35; mouse liver 24 h; oligonucleotide 5 mg/kg; rapamycin 5 mg/kg at 0, 12, 22 h
Protocol: The following experiments were performed to determine if the effects of autophagy modulators on antisense activity in vitro can be observed in vivo. […] Mice were sacrificed at 24 hours after administration of the modified oligonucleotide and tissues were collected for analysis. […] Atg7 mRNA levels are a marker of the induction of autophagy in treated mouse livers. Results are presented as percent change of RNA, relative to PBS control treated with DMSO, normalized to mouse cyclophilin A measured using mouse primer probe set Cyclophilin-A (forward sequence [NT], designated herein as SEQ ID NO: 38; reverse sequence [NT], designated herein as SEQ ID NO: 39; probe sequence [NT], designated herein as SEQ ID NO: 40). […] Following administration of modified oligonucleotide, groups of mice were either allowed free access to chow (control) or fasted overnight (16 hr fast). Mice were sacrificed at 16 hours after administration of the modified oligonucleotide and tissues were collected for analysis. […] Atg7 mRNA levels are a marker of the induction of autophagy in treated mouse livers. Results are presented in Table 33 relative to mice treated with PBS and allowed normal access to chow. […] Mice were sacrificed at 24 hours after administration of the modified oligonucleotide and tissues were collected for analysis. […]

LC3B = assay: Liver protein analysis in mice: LC3B II/I ratio; type: in vivo; settings: Table 34; mouse liver 24 h; oligonucleotide 5 mg/kg (or PBS); Treatment Rapamycin 5 mg/kg at 0, 12, 22 h
Protocol: (§1) The following experiments were performed to determine if the effects of autophagy modulators on antisense activity in vitro can be observed in vivo. Groups of 3-4 8-week-old male C57bl/6J mice were administered 5 mg/kg control oligonucleotide 141923, or 5 mg/kg antisense oligonucleotide 399462. Following administration of modified oligonucleotide, mice were administered 1% DMSO or 5 mg/kg AZD8055 in 1% DMSO at three time points over 24 hours: at the time of administration of the modified oligonucleotide, and 12 and 22 hours after administration of the modified oligonucleotide. A group of control mice was administered PBS at time 0 and 1% DMSO at 0, 12, and 22 hours. Mice were sacrificed at 24 hours after administration of the modified oligonucleotide and tissues were collected for analysis.
(§2) Autophagy activation was confirmed in livers by determining suppression of mTOR kinase activity (pS6/S6 levels), determining an increased LC3B II/I ratio (a marker for the formation of autophagosomes), and determining p62 degradation (related to the clearance of autophagosomes). Protein analysis was carried out on liver tissue using standard procedures. All proteins were normalized to α-tubulin. Phospho-S6 Ribosomal Protein (Ser240/244) (2215S), and S6 Ribosomal Protein (2217S) antibodies were obtained from Cell Signaling Technology. The antibody against LC3B (ab48394) was purchased from Abcam. […]

Malat-1 [4] = assay: MALAT-1 RNA in mouse liver by RT-qPCR; type: in vivo; settings: Table 35; mouse liver 24 h; oligonucleotide 5 mg/kg; rapamycin 5 mg/kg at 0, 12, 22 h
Protocol: The following experiments were performed to determine if the effects of autophagy modulators on antisense activity in vitro can be observed in vivo. […] Mice were sacrificed at 24 hours after administration of the modified oligonucleotide and tissues were collected for analysis. […] Atg7 mRNA levels are a marker of the induction of autophagy in treated mouse livers. Results are presented as percent change of RNA, relative to PBS control treated with DMSO, normalized to mouse cyclophilin A measured using mouse primer probe set Cyclophilin-A (forward sequence [NT], designated herein as SEQ ID NO: 38; reverse sequence [NT], designated herein as SEQ ID NO: 39; probe sequence [NT], designated herein as SEQ ID NO: 40). […] Following administration of modified oligonucleotide, groups of mice were either allowed free access to chow (control) or fasted overnight (16 hr fast). Mice were sacrificed at 16 hours after administration of the modified oligonucleotide and tissues were collected for analysis. […] Atg7 mRNA levels are a marker of the induction of autophagy in treated mouse livers. Results are presented in Table 33 relative to mice treated with PBS and allowed normal access to chow. […] Mice were sacrificed at 24 hours after administration of the modified oligonucleotide and tissues were collected for analysis. […] Atg7 mRNA levels are a marker of the induction of autophagy in treated mouse livers. […] RNA was extracted from liver tissue for real-time RTPCR analysis of MALAT1 RNA expression. Primer probe set 15877 was used to measure mouse MALAT1 RNA levels. Results are presented as percent change of RNA, relative to PBS control, normalized to mouse cyclophilin A measured using mouse primer probe set Cyclophilin-A. […] RNA was extracted from liver tissue for real-time RTPCR analysis of MALAT1 RNA expression. Primer probe set 15877 was used to measure mouse MALAT1 RNA levels. Results are presented as percent change of RNA, relative to PBS control, normalized to mouse cyclophilin A measured using mouse primer probe set Cyclophilin-A.

p62 = assay: Liver protein analysis in mice: p62; type: in vivo; settings: Table 34; mouse liver 24 h; oligonucleotide 5 mg/kg (or PBS); Treatment Rapamycin 5 mg/kg at 0, 12, 22 h
Protocol: as §1, §2

SMILES | effect of autophagy modulator on modified oligonucleotide activity (in words) (Malat-1 [1]) | effect of autophagy modulator on antisense activity (in words) (Malat-1 [1]) | effect of autophagy modulator on modified oligonucleotide activity (in words) (Malat-1 [2]) | other results
Cn1cnc(N)c2ncnc1-2 [3-MA, 3-methyladenine] | significantly enhanced modified oligonucleotide activity | significantly enhanced antisense activity |  | 
CO/C1=C\C(C)=C\[C@@H](C)[C@@H](O)[C@@H](C)C/C(C)=C/C=C/[C@H](OC)[C@@H]([C@@H](C)[C@@H](O)[C@H](C)[C@@]2(O)C[C@@H](O)[C@H](C)[C@@H](C(C)C)O2)OC1=O [BafA1, Bafilomycin A1] | significantly enhanced modified oligonucleotide activity | significantly enhanced antisense activity | significantly enhanced modified oligonucleotide activity | 
CCOC(=O)[C@H]1O[C@@H]1C(=O)N[C@@H](CC(C)C)C(=O)NCCC(C)C [E64D] | reduced activity of modified oligonucleotide |  |  | 
CC(=O)N[C@@H](CC(C)C)C(=O)N[C@@H](CC(C)C)C(=O)N[C@H](C=O)CCCNC(=N)N [Leupeptin] | significantly enhanced modified oligonucleotide activity | significantly enhanced antisense activity | significantly enhanced modified oligonucleotide activity | 
CO[C@H]1C[C@@H]2CC[C@@H](C)[C@@](O)(O2)C(=O)C(=O)N2CCCC[C@H]2C(=O)O[C@H]([C@H](C)C[C@@H]2CC[C@@H](O)[C@H](OC)C2)CC(=O)[C@H](C)/C=C(\C)[C@@H](O)[C@@H](OC)C(=O)[C@H](C)C[C@H](C)/C=C/C=C/C=C/1C [Rapamycin] |  |  |  | pS6/S6 ratio [3]: 0.7; Atg7 level (% relative to PBS/DMSO mice) (Atg7): 111%; LC3B II/I ratio (LC3B): 1.3; Malat-1 level (% relative to PBS/DMSO mice) (Malat-1 [4]): 89%; P62 (p62): 0.8
CC(C)C(=O)CN1c2nc(N3CCOC[C@H]3C)cc(=O)n2CC[C@H]1C(F)(F)F [VPS34-IN2] | significantly enhanced modified oligonucleotide activity |  | significantly enhanced modified oligonucleotide activity | 
CC[C@]1(O)C[C@@H]2CN(CCc3c([nH]c4ccccc34)[C@@](C(=O)OC)(c3cc4c(cc3OC)N(C)[C@H]3[C@@](O)(C(=O)OC)[C@H](OC(C)=O)[C@]5(CC)C=CCN6CC[C@]43[C@@H]65)C2)C1 [Vinblastine] | significantly enhanced modified oligonucleotide activity |  |  | 
